SMILES strings stand for the structures.

The target in the first experiment is T1, human oxytocin receptor (Homo sapiens, UniProt P30559).
T1 construct: host or cells: CHO cells, stably transfected (pcDNA3.1 vector); membranes
T1 sequence (P30559 1-389): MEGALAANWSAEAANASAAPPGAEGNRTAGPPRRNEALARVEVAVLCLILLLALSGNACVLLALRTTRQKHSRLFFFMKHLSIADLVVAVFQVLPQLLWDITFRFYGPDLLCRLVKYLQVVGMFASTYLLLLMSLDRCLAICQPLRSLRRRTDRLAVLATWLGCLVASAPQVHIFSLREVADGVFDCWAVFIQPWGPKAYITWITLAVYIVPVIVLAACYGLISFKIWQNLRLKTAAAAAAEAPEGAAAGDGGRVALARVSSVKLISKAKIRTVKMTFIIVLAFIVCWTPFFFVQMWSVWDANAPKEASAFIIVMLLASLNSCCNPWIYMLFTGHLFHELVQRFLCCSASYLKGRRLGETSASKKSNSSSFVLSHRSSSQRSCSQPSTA
The experiment can be described thus: Oxytocin binding in CHO cell membranes expressing human oxytocin receptors ([3H]oxytocin). The settings on record: 100 nM, values without parentheses. From the text: Oxytocin Binding in Chinese Hamster Ovary Cell Membranes Expressing Human Oxytocin Receptors
Chinese Hamster Ovary (CHO) cells stably transfected with the human oxytocin (cf. Tanizawa et al., U.S. Pat. No. 5,466,584 (1995) to Rohto Pharmaceutical Co. Ltd., Osaka, Japan) were obtained from M. Thibonnier, Case Western Reserve University School of Medicine, Cleveland, Ohio. A. Passaging and Amplification of Cells: CHO cells transfected with the human oxytocin receptors obtained from M. Thibonnier (pcDNA3.1 vector) are allowed to grow to confluency (approx. >90%) in T-150 flasks under sterile conditions, in a cell culture medium of F-12 Nutrient Mixture (HAM) with L-glutamine (Gibco Cat. #11765-054) containing 15 mM HEPES (Gibco Cat. #15630-080), 1% antibiotic/antimycotic (add 5 mL 100×, Gibco Cat. #15240-062 per 500 mL F-12), 400 μg/mL of Geneticin (add 4 mL of 50 mg/mL per 500 mL F-12) and 10% Fetal Bovine Serum (Qualified, heat inactivated, Gibco Cat. #16140-063). The medium is removed by aspiration and the cells are washed with 10 mL of Hank's Balanced Salt solution (Gibco Cat. #14175-095). The salt solution is removed by aspiration and the cells trypsinized with 5 mL of trypsin-EDTA (0.05% trypsin, 0.53 mM EDTA-4Na, Gibco Cat. #25300-070) for 1 min. The trypsin is removed by aspiration and the cells dislodged by tapping. Cell Culture medium (e.g. 30 mL for 1:30 split) is immediately added and mixed well to inactivate trypsin. 1 mL of detached cells is added to new culture flasks containing fresh Cell Culture medium (e.g. into 25 mL per T-150 flask), and mixed gently. The cells are incubated at 37° C. in 5% CO2. The medium is changed at 3 to 4 days interval (or as appropriate). The cells grow to confluency (approx. >75%–95%) within 7–8 days. All steps are done under sterile conditions. B. Membrane Preparation: The cells are washed twice gently with Hank's Balanced Salt solution (e.g., use 10 mL per T-150 flask). The excess is removed and the cells bathed for 15–30 min. in an enzyme-free Cell Dissociation Buffer (e.g., use 8 mL Hank's Based, Gibco Cat. #13150-016 per T-150 flask) until cells are loosened. The contents are transferred to centrifuge tubes (50 mL size) kept in ice bath. All subsequent steps are done at 4° C. The tubes are centrifuged at 300×g for 15 min (1380 rpm on SORVAL, Model RT6000D, using rotor for 50 mL tubes). The supernatant is discarded and the cells suspended in homogenizing buffer (10 mM Tris-HCl containing 0.25 M sucrose and 1 mM EDTA, pH 7.4) ensuring that the volume of the buffer is about ten times the volume of the cell pellet. The cells are pooled into a centrifuge tube (50 mL) and homogenized with Polytron at setting 6 for 10 sec. The homogenate is transferred into a Potter-Elvjehm homogenizer and homogenized with 3 strokes. The homogenate is centrifuged at 1500×g for 10 min at 4° C. (3100 rpm using SORVAL, model RT6000D, using rotor for 50 mL tubes). The pellet. is discarded. The supernatant is centrifuged at 100,000×g for 60 min. at 4° C. (Beckman L8-80M ultracentrifuge; spin at 37,500 rpm with rotor type 70 Ti for 50 mL tubes; 38,000 rpm with type 80Ti for 15 mL tubes; or 35,800 rpm with rotor type 45Ti). The supernantant is discarded and the pellet suspended in 3 to 4 mL of Tris buffer (50 mM TRIS-HCl, pH 7.4). The protein content is estimated by the Bradford or Lowry method. The volume of the membrane suspension is adjusted with the membrane buffer (50 mM Tris-HCl containing 0.1% BSA and 0.1 mM PMSF) to give 3.0 mg/mL (or as appropriate) of protein. The membranes are aliquoted and stored at −70° C. C. Radioligand Binding Assay: In wells of a 96-well format microliter plate, is added 90, 110 or 130 μL (to make up a final volume of 200 μL) of assay buffer containing 50 mM of Tris-HCl (pH 7.4), […], 1 mg % aprotinin, 1 mg % leupeptin, 2 mg % 1,10-phenanthroline, 10 mg % trypsin inhibitor, and 0.1 mM PMSF. The inhibitors are added on the day of the experiment. […]
Regarding `CC(C)(C)C1CCCC=C1c1ccc(C(=O)N2Cc3cccn3Cc3ccccc32)cc1` (centres unmarked) [Example 20, (10,11-5H-Dihydro-pyrrolo[2,1-c][1,4]benzodiazepin-10-yl)-[4-(6-tert-butyl-cyclohex-1-en-1-yl)-phenyl]-methanone], the “OT % inhibition @ 100 nM” value amounted to 27%.
Same read-out and setting: with `O=C(c1ccc(C2=CCC3CCC2C3)cc1)N1Cc2cccn2Cc2ccccc21` (centres unmarked) [Example 21] the figure was 38%.

Staying with this experiment, now noted: 100 nM, values without parentheses, read-out: OT % inhibition @ 100 nM.
By inhibition is commonly meant the percentage by which the read-out fell short of the control. `CC1(C)C2CC=C(c3ccc(C(=O)N4Cc5cccn5Cc5ccccc54)cc3)C1C2` (centres unmarked) [Example 22, (10,11-Dihydro-5H-pyrrolo[2,1-c][1,4]benzodiazepin-10-yl)-[4-(6,6-dimethyl-bicyclo[3.1.1]hept-2-en-2-yl)-phenyl]-methanone]: the inhibition at 0.1 µM was found to be 32%.
The same measure, in the same setting: with `CC1(C)C=C(c2ccc(C(=O)N3Cc4cccn4Cc4ccccc43)cc2)CC(C)(C)C1` [Example 23, (10,11-Dihydro-5H-pyrrolo[2,1-c][1,4]benzodiazepin-10-yl)-[4-(3,3,5,5-tetramethyl-cyclohex-1-en-1-yl)-phenyl]-methanone] the figure was 7%.
For the compound `O=C1C=C(c2ccc(C(=O)N3Cc4cccn4Cc4ccccc43)cc2)CCC1` [Example 24, 3-[4-(10,11-Dihydro-5H-pyrrolo[2,1-c][1,4]benzodiazepine-10-carbonyl)-phenyl]-cyclohex-2-en-1-one], the inhibition at 0.1 µM was found to be 70%.
Take `O=C(c1ccc(C2=CC(O)CCC2)cc1)N1Cc2cccn2Cc2ccccc21` (centres unmarked) [Example 25, (10,11-Dihydro-5H-pyrrolo[2,1-c][1,4]benzodiazepin-10-yl)-[4-(3-hydroxy-cyclohex-1-en-1-yl)-phenyl]-methanone]: the inhibition at 0.1 µM worked out at 39%.
Still for that read-out and setting: to `CC1=C(c2ccc(C(=O)N3Cc4cccn4Cc4ccccc43)cc2)CCCC1=O` [Example 26, 3-[4-(10,11-Dihydro-5H-pyrrolo[2,1-c][1,4]benzodiazepine-10-carbonyl)-phenyl]-2-methyl-cyclohex-2-en-1-one] belongs 80%.
On to `CC1=C(c2ccc(C(=O)N3Cc4cccn4Cc4ccccc43)cc2)CCCC1O` (centres unmarked) [Example 27, (10,11-Dihydro-5H-pyrrolo[2,1-c][1,4]benzodiazepin-10-yl)-[4-(3-hydroxy-2-methyl-cyclohex-1-en-1-yl)-phenyl]-methanone], for which the inhibition at 0.1 µM came to 96%.
The same measure, in the same setting: with `Cc1cc(C(=O)N2Cc3cccn3Cc3ccccc32)ccc1C1=CCCCC1C` (centres unmarked) [Example 29, (10,11-Dihydro-5H-pyrrolo[2,1-c][1,4]benzodiazepin-10-yl)-[3-methyl-4-(6-methyl-cyclohex-1-en-1-yl)-phenyl]-methanone] the figure was 81%; with `Cc1cc(C(=O)N2Cc3cccn3Cc3ccccc32)ccc1C1=CCCCC1(C)C` [Example 30, (10,11-Dihydro-5H-pyrrolo[2,1-c][1,4]benzodiazepin-10-yl)-[4-(6,6-dimethyl-cyclohex-1-en-1-yl)-3-methyl-phenyl]-methanone], 67%.
Still for that read-out and setting: to `CC1=C(c2ccc(C(=O)N3Cc4cccn4Cc4ccccc43)cc2C)C(C)CCC1` (centres unmarked) [Example 33, (10,11-Dihydro-5H-pyrrolo[2,1-c][1,4]benzodiazepin-10-yl)-[4-(2,6-dimethyl-cyclohex-1-en-1-yl)-3-methyl-phenyl]-methanone] belongs 56%; to `Cc1cc(C(=O)N2Cc3cccn3Cc3ccccc32)ccc1C1=CCCCC1C(C)(C)C` (centres unmarked) [Example 34, (10,11-Dihydro-5H-pyrrolo[2,1-c][1,4]benzodiazepin-10-yl)-[4-(6-tert-butyl-cyclohex-1-en-1-yl)-3-methyl-phenyl]-methanone], 20%.
For `Cc1cc(C(=O)N2Cc3cccn3Cc3ccccc32)ccc1C1=CCC2CCC1C2` (centres unmarked) [Example 35, (10,11-Dihydro-5H-pyrrolo[2,1-c][1,4]benzodiazepin-10-yl)-(4-bicyclo[3.2.1]oct-2-en-2-yl-3-methyl-phenyl)-methanone], the inhibition at 0.1 µM turned out to be 48%.
On the same count and under the same terms, with `Cc1cc(C(=O)N2Cc3cccn3Cc3ccccc32)ccc1C1=CCC2CC1C2(C)C` (centres unmarked) [Example 36, (10,11-Dihydro-5H-pyrrolo[2,1-c][1,4]benzodiazepin-10-yl)-[4-(6,6-dimethyl-bicyclo[3.1.1]hept-2-en-2-yl)-3-methyl-phenyl]-methanone] the figure was 14%; with `Cc1cc(C(=O)N2Cc3cccn3Cc3ccccc32)ccc1C1=CC(C)(C)CC(C)(C)C1` [Example 37, (10,11-Dihydro-5H-pyrrolo[2,1-c][1,4]benzodiazepin-10-yl)-[3-methyl-4-(3,3,5,5-tetramethyl-cyclohex-1-en-1-yl)-phenyl]-methanone], 30%; with `COc1cccc(C2=C(c3ccc(C(=O)N4Cc5cccn5Cc5ccccc54)cc3C)CCCC2)c1` [Example 38, (10,11-Dihydro-5H-pyrrolo[2,1-c][1,4]benzodiazepin-10-yl)-{4-[2-(3-methoxy-phenyl)-cyclohex-1-en-1-yl]-3-methyl-phenyl}-methanone], 16%.
Still for that read-out and setting: with `Cc1cc(C(=O)N2Cc3cccn3Cc3ccccc32)ccc1C1=CC(=O)CCC1` [Example 39, 3-[4-(10,11-Dihydro-5H-pyrrolo[2,1-c][1,4]benzodiazepine-10-carbonyl)-2-methyl-phenyl]-cyclohex-2-en-1-one] the figure was 76%; with `Cc1cc(C(=O)N2Cc3cccn3Cc3ccccc32)ccc1C1=CC(O)CCC1` (centres unmarked) [Example 40, (10,11-Dihydro-5H-pyrrolo[2,1-c][1,4]benzodiazepin-10-yl)-[4-(3-hydroxy-cyclohex-1-en-1-yl)-3-methyl-phenyl]-methanone], 63%.
On the same count and under the same terms, to `CO[C@@H]1CCCC(c2ccc(C(=O)N3Cc4cccn4Cc4ccccc43)cc2C)=C1C` [Example 44, 10-{4-[(3R)-3-Methoxy-2-methylcyclohex-1-en-1-yl]-3-methylbenzoyl}-10,11-dihydro-5H-pyrrolo[2,1-c][1,4]benzodiazepine] belongs 96%; to `CC1=C(c2ccc(C(=O)N3Cc4cccn4Cc4ccccc43)cc2C)CCCC1N` (centres unmarked) [Example 45, [4-(3-Amino-2-methyl-cyclohex-1-en-1-yl)-3-methyl-phenyl]-(10,11-dihydro-5H-pyrrolo[2,1-c][1,4]benzodiazepin-10-yl)-methanone], 67%.

Source of the values: patent US7022699B2, “Cyclohexenyl phenyl diazepines vasopressin and oxytocin receptor modulators” (Wyeth, priority 2001, dated 2006).
